Laboratory results as given in patent US20220274947A1, “NOVEL HETEROARYL-TRIAZOLE COMPOUNDS AS PESTICIDES” (Bayer Aktiengesellschaft, priority 2019, published 2022).

How the values were obtained:
Assay type in all cases: in vivo
Ctenocephalides felis = Ctenocephalides felis oral test (CTECFE Oral); settings: 48 h, read-out: activity (mortality)
Method in brief: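 About 20 unfed adult cat fleas fed through parafilm on cattle blood containing compound (DMSO concentrate diluted in blood to the desired concentration). Blood held at 37 °C, fleas at room temperature. Mortality (%) scored after 2 days.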

Rhipicephalus sanguineus = Rhipicephalus sanguineus in-vitro contact test, adult brown dog ticks (RHIPSA Cont); settings: 48 h, after 48 hours, read-out: activity (efficacy: 100% means all ticks are dead or moribund); for pest or weed control at 1 µg/cm2, 100 g/ha: application rate 1 μg/cm^2 (=100 g/ha); for pest or weed control at 5 µg/cm2, 500 g/ha: application rate 5 μg/cm^2 (=500 g/ha)
Method in brief: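 Mortality of adult R. sanguineus was judged 48 h after contact with acetone-applied residues on glass tube walls. Ticks that stayed immotile or moved without coordination when heated to 45–50 °C (max 5 min) counted as dead or moribund.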

Myzus persicae = Myzus persicae oral test; settings: 120 h, read-out: activity (mortality)
Method in brief: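 Percent mortality was recorded at day 5, where 0% means no aphids killed. Compound prepared from an acetone concentrate diluted in water and combined with IPL41 medium containing sugar was offered to mixed-stage green peach aphids, which sucked it through a parafilm seal.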

[1] = test system: Aedes aegypti strain MONHEIM; assay: Aedes aegypti test (AEDSAE surface treatment & contact assay); settings: exposure 30 minutes, 24 hours after contact, read-out: efficacy (mortality); for mortality at 4 mg/m2: surface concentration 4 mg/m^2, glazed tile; for mortality at 20 mg/m2: surface concentration 20 mg/m^2, glazed tile
Method in brief: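 Compound dissolved in acetone (2 mg/ml) with 2000 ppm rapeseed oil methyl ester, pipetted onto glazed tile and dried. Adult mosquitoes exposed on the surface for 30 min; percent mortality scored 24 h after contact.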

[2] = test system: Musca domestica strain WHO—N; assay: Musca domestica test (MUSCDO surface treatment & contact assay); settings: exposure 30 minutes, 24 hours after contact, read-out: efficacy (mortality); for mortality at 20 mg/m2: surface concentration 20 mg/m^2, glazed tile; for mortality at 4 mg/m2: surface concentration 4 mg/m^2, glazed tile
Method in brief: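 Compound dissolved in acetone (2 mg/ml) with 2000 ppm rapeseed oil methyl ester and pipetted onto glazed tile; after acetone evaporation, adult flies exposed to dried surface for 30 minutes. Mortality (%) scored 24 hours after contact.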

[3] = test system: Culex quinquefasciatus strain P00; assay: Culex quinquefasciatus test (CULXFA surface treatment & contact assay); settings: exposure 30 minutes, 24 hours after contact, read-out: efficacy (mortality); for mortality at 20 mg/m2: surface concentration 20 mg/m^2, glazed tile; for mortality at 4 mg/m2: surface concentration 4 mg/m^2, glazed tile
Experimental: Culex quinquefasciatus Test (CULXFA Surface Treatment & Contact Assay) Solvent: Aceton+2000 ppm rapeseed oil methyl ester (RME)
In order to produce a sufficient, active ingredient containing solution it is necessary to solve the test compound in the solvent-mix (acetone at 2 mg/ml/RME 2 000 ppm). This solution is pipetted onto a glazed tile and after evaporation of the acetone, adult mosquitoes of the species Culex quinquefasciatus strain P00 are placed onto the dried surface. The exposure time is 30 minutes. Mortality in percent (%) is determined 24 hours after contact of the insects to the treated surface. 100% mortality means that all tested insects are dead, whereas 0% means that no insect died.

[4] = test system: Anopheles funestus strain FUMOZ-R; assay: Anopheles funestus test (ANPHFU surface treatment & contact assay); settings: exposure 30 minutes, 24 hours after contact, read-out: efficacy (mortality); for mortality at 4 mg/m2: surface concentration 4 mg/m^2, glazed tile; for mortality at 20 mg/m2: surface concentration 20 mg/m^2, glazed tile
Method in brief: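 Adult FUMOZ-R mosquitoes were exposed 30 min to glazed tiles treated with compound in acetone plus 2000 ppm rapeseed oil methyl ester, after solvent evaporation. Percent mortality was scored 24 h after contact.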

Structure (SMILES)	mortality at 100 ppm (Ctenocephalides felis) [%]	pest or weed control at 1 µg/cm2, 100 g/ha (Rhipicephalus sanguineus) [%]	mortality at 4 ppm (Myzus persicae) [%]	mortality at 4 mg/m2 [1] [%]	mortality at 20 mg/m2 [1] [%]	mortality at 20 mg/m2 [2] [%]	mortality at 20 mg/m2 [3] [%]	pest or weed control at 5 µg/cm2, 500 g/ha (Rhipicephalus sanguineus) [%]	mortality at 4 mg/m2 [3] [%]	mortality at 4 mg/m2 [2] [%]	mortality at 4 mg/m2 [4] [%]	mortality at 0.8 ppm (Myzus persicae) [%]	mortality at 20 mg/m2 [4] [%]
CC(C)c1nc([C@H](C)NC(=O)c2cncc(C(F)(F)F)c2)n(-c2ccc(C#N)cn2)n1 [I-30]	100	80	90	80 to 100	80 to 100	80 to 100	–	–	–	–	–	–	–
C[C@H](NC(=O)c1cc(Cl)cc(OC(F)(F)F)c1)c1ncnn1-c1cc(N)ccn1 [II-7]	100	–	100	–	80 to 100	80 to 100	80 to 100	–	–	–	–	–	–
C[C@H](NC(=O)c1cc(Cl)cc(SC(F)F)c1)c1ncnn1-c1ccc(C#N)cn1 [II-11]	100	–	100	80 to 100	80 to 100	80 to 100	80 to 100	80	80 to 100	80 to 100	–	–	–
C[C@H](NC(=O)c1cc(Br)cc(Br)c1)c1ncnn1-c1ccc(C#N)cn1 [II-13]	100	100	90	80 to 100	80 to 100	80 to 100	80 to 100	80	–	80 to 100	–	–	–
C[C@H](NC(=O)c1cc(Br)cc(OC(F)(F)F)c1)c1ncnn1-c1ccc(C#N)cn1 [II-14]	100	80	100	80 to 100	80 to 100	80 to 100	–	80	–	80 to 100	80 to 100	–	–
Cc1nc([C@H](C)NC(=O)c2cc(Cl)cc(C(F)(F)F)c2)n(-c2cc(C#N)ccn2)n1 [II-18]	90	100	100	–	–	80 to 100	80 to 100	100	–	80 to 100	–	–	–
Cc1nc([C@H](C)NC(=O)c2cc(C(F)(F)F)cc(C(F)(F)F)c2)n(-c2cc(C#N)ccn2)n1 [II-19]	100	100	100	80 to 100	80 to 100	80 to 100	80 to 100	100	–	–	–	100	–
Cc1nc([C@H](C)NC(=O)c2cc(Br)cc(C(F)(F)F)c2)n(-c2ccc(C#N)cn2)n1 [II-32]	–	100	100	80 to 100	80 to 100	80 to 100	–	100	–	80 to 100	–	100	–
C[C@H](NC(=O)c1cc(C(F)(F)F)cc(C(F)(F)F)c1)c1ncnn1-c1ccc(C(=O)NC2CC2)cn1 [II-37]	–	–	100	80 to 100	80 to 100	–	80 to 100	80	–	–	–	100	–
C[C@H](NC(=O)c1cc(C(F)(F)F)cc(C(F)(F)F)c1)c1ncnn1-c1ncc(Br)s1 [II-41]	–	100	100	80 to 100	80 to 100	80 to 100	80 to 100	100	80 to 100	80 to 100	–	–	–
C[C@H](NC(=O)c1cc(Cl)cc(C#N)c1)c1ncnn1-c1ccc(C#N)cn1 [II-57]	100	100	–	80 to 100	80 to 100	80 to 100	80 to 100	100	80 to 100	80 to 100	–	–	–
Cc1nc([C@H](C)NC(=O)c2cc(Cl)cc(C#N)c2)n(-c2ccc(C#N)cn2)n1 [II-61]	100	100	100	80 to 100	80 to 100	80 to 100	–	100	–	80 to 100	–	–	–
Cc1nc([C@H](C)NC(=O)c2cc(Cl)cc(C(F)F)c2)n(-c2ccc(C#N)cn2)n1 [II-65]	100	100	100	80 to 100	80 to 100	80 to 100	–	100	–	80 to 100	–	–	–
C[C@H](NC(=O)c1cc(OC(F)F)cc(OC(F)F)c1)c1ncnn1-c1ccc(C#N)cn1 [II-77]	100	–	100	80 to 100	80 to 100	80 to 100	–	100	–	80 to 100	80 to 100	90	80 to 100
C[C@H](NC(=O)c1cc(Cl)cc(C(F)(F)F)c1)c1ncnn1-c1ccc(N(C)C(=O)C2CC2)cn1 [II-79]	100	80	–	80 to 100	80 to 100	–	–	80	–	–	80 to 100	100	80 to 100
C[C@H](NC(=O)c1cc(C(F)(F)F)cc(C(F)(F)F)c1)c1ncnn1-c1ccc(C(N)=O)cn1 [II-81]	100	–	100	80 to 100	80 to 100	80 to 100	–	–	–	–	80 to 100	100	80 to 100
C[C@H](NC(=O)c1cc(Br)cc(C(F)F)c1)c1ncnn1-c1ccc(C#N)cn1 [II-83]	100	100	100	80 to 100	80 to 100	80 to 100	–	100	–	80 to 100	80 to 100	–	80 to 100
Cc1nc([C@H](C)NC(=O)c2cc(C(F)(F)F)cc(C(F)(F)F)c2)n(-c2ccc(C(=O)N(C)CC#N)cn2)n1 [II-99]	–	100	100	–	80 to 100	80 to 100	–	100	–	80 to 100	–	100	–
C[C@H](NC(=O)c1cc(C(F)F)cc(C(F)F)c1)c1ncnn1-c1ccc(C#N)cn1 [II-101]	–	100	100	80 to 100	80 to 100	80 to 100	–	100	–	80 to 100	80 to 100	100	80 to 100
C[C@H](NC(=O)c1cc(OC(F)(F)F)cc(C(F)F)c1)c1ncnn1-c1ccc(C#N)cn1 [II-111]	–	100	100	80 to 100	–	80 to 100	–	100	–	–	–	90	–
C[C@H](NC(=O)c1cc(OC(F)F)cc(C(F)F)c1)c1ncnn1-c1ccc(C#N)cn1 [II-116]	–	100	100	80 to 100	80 to 100	80 to 100	–	100	–	80 to 100	–	100	80 to 100
Cc1nc([C@H](C)NC(=O)c2cc(OC(F)(F)F)cc(C(F)F)c2)n(-c2ccc(C#N)cn2)n1 [II-117]	–	100	100	80 to 100	80 to 100	80 to 100	–	100	–	80 to 100	–	100	–
